≈ marks a conversion by molar mass, not a printed value. Read-outs that look alike come from different tables or passages of the source.
Legend:
P. aeruginosa 77 = assay: Microbroth dilution MIC with and without sucrose recovery; assay type: cell-based, Pseudomonas aeruginosa; conditions: MIC given as multiple of S/I/R; for minimum inhibitory concentration (MIC), Standard: P. aeruginosa 77 recovered by standard plating; for minimum inhibitory concentration (MIC), Sucrose: P. aeruginosa 77 recovered through sucrose (Method 2)
Description: (§1) Microbroth dilution for minimum inhibitory concentrations (MIC) with and without sucrose recovery. To isolate bacteria without sucrose, culture media from positive BacT/alert FA PLUS aerobic culture bottles (bioMérieux, Durham, NC) was serially diluted and plated onto LB agar (Lennox; Sigma-Aldrich, St. Louis, MO). Bacterial suspensions were prepared by resuspending colonies in CAMHB with incubation on a MaxQ 4000 incubator shaker (Thermo Fisher Scientific, Waltham, MA) at 37° C. and ˜225 rpm for 3 hours. Bacteria recovered via Method 2 were diluted 10-fold in CAMHB. Following incubation or sucrose recovery and dilution, bacterial suspensions were adjusted to ˜0.004 OD600 with CAMHB and a 50-μL aliquot distributed to each well of a 96-well plate containing CAMHB with and without clinically relevant antibiotics (2-fold dilution series). Gram-negative plates included: ceftazidime (3rd generation cephalosporin, RPI corp., Mount Prospect, IL), cefepime (4th generation cephalosporin, Chem-Impex Int'l, Wood Dale, IL), meropenem (carbapenem, Tokyo Chemical Industry, Tokyo, Japan), levofloxacin (quinolone, Alfa Aesar, Haverhill, MA), and tobramycin (aminoglycoside, MP Biomedicals LLC, Santa Ana, CA), while S. aureus plates contained: oxacillin (beta-lactam, Sigma-Aldrich, St. Louis, MO), vancomycin (glycopeptide, Santa Cruz Biotechnology, Dallas, TX), erythromycin (macrolide, Sigma-Aldrich, St. Louis, MO), clindamycin ([…]), and ciprofloxacin (fluoroquinolone, Sigma-Aldrich, St. Louis, MO). Antibiotic plates were incubated at 37° C. for 16-20 hours (gram-negative) or 35° C. for 24 hours (S. aureus), at which time, plates were removed from the incubator and visually inspected for bacterial growth. The MIC was set at the lowest antibiotic concentration at which no growth was detected.
Influence of Sucrose on Bacterial MIC. To rule out the potential effect of sucrose exposure in bacterial antibiotic susceptibility, microbroth dilution studies were performed on bacteria recovered using standard practices (i.e. plating following positive blood culture) and through selective lysis coupled with centrifugation through the sucrose cushion (Method 2).

P. aeruginosa [1] = assay: Direct flow cytometric AST (high-throughput flow cytometry, HTFC) of sucrose-recovered bacteria; assay type: cell-based, Pseudomonas aeruginosa; design: key to susceptibility classification, HTFC: (S) sensitive; (I) intermediate; (R) resistant; conditions: for MIC: Pseudomonas aeruginosa, read-out: Minimum inhibitory concentration, HTFC
Description: AST workflow using bacteria recovered directly from positive blood culture. A 1-mL aliquot of bacteria recovered using separation method 2 was diluted 10-fold in CAMHB, the OD600 adjusted to ˜0.01, and a 50 μL aliquot distributed into each well of a 96-well plate containing CAMHB with and without ceftazidime, tobramycin, and either meropenem (E. coli and P. aeruginosa) or oxacillin (S. aureus). Following Clinical and Laboratory Standards Institute (CLSI) guidelines^33, 2% sodium chloride (NaCl) was present in wells containing oxacillin to assist in the detection of methicillin-resistant S. aureus (MRSA). […] To account for observed differences in doubling and lag times, E. coli and P. aeruginosa were incubated for 4 hours at 37° C., while S. aureus was incubated for 9 hours at 35° C. After incubation, antibiotic plates were removed from the incubator and directly stored on ice (i.e. no post-processing) until high-throughput flow cytometry (BD LSRFortessa with HTS-system, BD, Franklin Lakes, NJ). No-antibiotic controls and antibiotic-treated samples were handled identically.
MIC Determination by flow cytometry. Because antibiotic effects are observed in both the position of scatter signatures (morphology changes) and count rates (growth inhibition), a modified count rate, accounting for scatter position, was used to evaluate susceptibility. Briefly, no-antibiotic control populations (triplicate) were pooled, binned, and a convex hull boundary set at 1-standard deviation above the background (not including bins with zero counts) was drawn. […] The overlap ratio, measuring changes in morphology, was then computed by dividing the number of sample events within the no-antibiotic control boundary by the total number of events within the sample. As an increase in count rate attributed to viable bacteria in antibiotic-treated samples is not scientifically meaningful, the fractional overlap was multiplied by the minimum of the control and sample count rates to generate a modified count rate accounting for antibiotic-induced morphological changes. All modified count rates were normalized by the average of the no-antibiotic controls. For automatic MIC determination, normalized count rates corresponding to n (index of predicted MIC), n+1, n+2 were iteratively fit to a linear function with a frameshift of n+1 between iterations (FIGS. 8 and 9). […] A threshold of −0.01 instead of zero was used to mitigate the influence of small fluctuations in normalized count rates on susceptibility determinations.

P. aeruginosa [2] = assay: Broth microdilution (BMD) MIC; assay type: cell-based, Pseudomonas aeruginosa; design: key to susceptibility classification, BMD: (S) sensitive; (I) intermediate; (R) resistant; conditions: broth microdilution; for MIC: Pseudomonas aeruginosa, read-out: Minimum inhibitory concentration, BMD
Description: as §1

E. coli = assay: Broth microdilution (BMD) MIC; assay type: cell-based, Escherichia coli; design: key to susceptibility classification, BMD: (S) sensitive; (I) intermediate; (R) resistant; conditions: for MIC: Escherichia coli
Description: as §1

[3] = P. aeruginosa Blood Culture B, antibiotic 4 hours (37° C.)
[4] = P. aeruginosa Blood Culture C, antibiotic 4 hours (37° C.)
[5] = P. aeruginosa PA7, antibiotic 4 hours (37° C.)
[6] = P. aeruginosa PA46, antibiotic 4 hours (37° C.)
[7] = P. aeruginosa PA49, antibiotic 4 hours (37° C.)
[8] = P. aeruginosa PA81, antibiotic 4 hours (37° C.)
[9] = P. aeruginosa PAO1, antibiotic 4 hours (37° C.)
[10] = 4 h, P. aeruginosa Blood Culture B, antibiotic 4 hours (37° C.)
[11] = 4 h, P. aeruginosa PA7, antibiotic 4 hours (37° C.)
[12] = 4 h, P. aeruginosa PA46, antibiotic 4 hours (37° C.)
[13] = 4 h, P. aeruginosa PA49, antibiotic 4 hours (37° C.)
[14] = 4 h, P. aeruginosa PA81, antibiotic 4 hours (37° C.)
[15] = PAO1, 4 h, P. aeruginosa PAO1, antibiotic 4 hours (37° C.)
[16] = E. coli Blood Culture A, broth microdilution
[17] = E. coli Blood Culture B, broth microdilution
[18] = E. coli EC37, broth microdilution
[19] = E. coli EC-bank, broth microdilution
[20] = E. coli Mu76, broth microdilution
[21] = E. coli Mu218, broth microdilution
[22] = E. coli Mu890, broth microdilution
[23] = E. coli Blood Culture A, broth microdilution, read-out: Minimum inhibitory concentration, BMD
[24] = E. coli Blood Culture B, broth microdilution, read-out: Minimum inhibitory concentration, BMD
[25] = E. coli EC37, broth microdilution, read-out: Minimum inhibitory concentration, BMD
[26] = E. coli EC-bank, broth microdilution, read-out: Minimum inhibitory concentration, BMD
[27] = E. coli Mu76, broth microdilution, read-out: Minimum inhibitory concentration, BMD
[28] = E. coli Mu218, broth microdilution, read-out: Minimum inhibitory concentration, BMD
[29] = E. coli Mu890, broth microdilution, read-out: Minimum inhibitory concentration, BMD

SMILES: CC(C)(O/N=C(\C(=O)N[C@@H]1C(=O)N2C(C(=O)[O-])=C(C[n+]3ccccc3)CS[C@H]12)c1csc(N)n1)C(=O)O [Ceftazidime, ceftazidime]
- minimum inhibitory concentration (MIC), Standard (P. aeruginosa 77): ½S
- minimum inhibitory concentration (MIC), Sucrose (P. aeruginosa 77): ¼S
- susceptibility classification, HTFC (P. aeruginosa [1]; [3]): (S)
- susceptibility classification, HTFC (P. aeruginosa [1]; [4]): (S)
- susceptibility classification, HTFC (P. aeruginosa [1]; [5]): (S)
- susceptibility classification, HTFC (P. aeruginosa [1]; [6]): (S)
- susceptibility classification, HTFC (P. aeruginosa [1]; [7]): (S)
- susceptibility classification, HTFC (P. aeruginosa [1]; [8]): (S)
- susceptibility classification, HTFC (P. aeruginosa [1]; [9]): (S)
- MIC (P. aeruginosa [1]; [10]): 4 µg/mL (≈ 7.32 µM)
- MIC (P. aeruginosa [1]; 4 h, P. aeruginosa Blood Culture C, antibiotic 4 hours (37° C.)): 2 µg/mL (≈ 3.66 µM)
- MIC (P. aeruginosa [1]; [11]): 8 µg/mL (≈ 14.6 µM)
- MIC (P. aeruginosa [1]; [12]): 2 µg/mL (≈ 3.66 µM)
- MIC (P. aeruginosa [1]; [13]): 4 µg/mL (≈ 7.32 µM)
- MIC (P. aeruginosa [1]; [14]): 8 µg/mL (≈ 14.6 µM)
- MIC (P. aeruginosa [1]; [15]): 1 µg/mL (≈ 1.83 µM)
- susceptibility classification, BMD (P. aeruginosa [2]; P. aeruginosa Blood Culture B): (S)
- susceptibility classification, BMD (P. aeruginosa [2]; P. aeruginosa Blood Culture C): (S)
- susceptibility classification, BMD (P. aeruginosa [2]; P. aeruginosa PA7): (R)
- susceptibility classification, BMD (P. aeruginosa [2]; P. aeruginosa PA46): (S)
- susceptibility classification, BMD (P. aeruginosa [2]; P. aeruginosa PA49): (S)
- susceptibility classification, BMD (P. aeruginosa [2]; P. aeruginosa PA81): (S)
- susceptibility classification, BMD (P. aeruginosa [2]; P. aeruginosa PAO1): (S)
- MIC (P. aeruginosa [2]; P. aeruginosa Blood Culture B): 4 µg/mL (≈ 7.32 µM)
- MIC (P. aeruginosa [2]; P. aeruginosa Blood Culture C): 1 µg/mL (≈ 1.83 µM)
- MIC (P. aeruginosa [2]; P. aeruginosa PA7): 128 µg/mL (≈ 234 µM)
- MIC (P. aeruginosa [2]; P. aeruginosa PA46): 1 µg/mL (≈ 1.83 µM)
- MIC (P. aeruginosa [2]; P. aeruginosa PA49): 2 µg/mL (≈ 3.66 µM)
- MIC (P. aeruginosa [2]; P. aeruginosa PA81): 4 µg/mL (≈ 7.32 µM)
- MIC (P. aeruginosa [2]; PAO1, P. aeruginosa PAO1): 1 µg/mL (≈ 1.83 µM)
- susceptibility classification, BMD (E. coli; [16]): (R)
- susceptibility classification, BMD (E. coli; [17]): (R)
- susceptibility classification, BMD (E. coli; [18]): (R)
- susceptibility classification, BMD (E. coli; [19]): (R)
- susceptibility classification, BMD (E. coli; [20]): (S)
- susceptibility classification, BMD (E. coli; [21]): (R)
- susceptibility classification, BMD (E. coli; [22]): (S)
- MIC (E. coli; [23]): 16 µg/mL (≈ 29.3 µM)
- MIC (E. coli; [24]): 64 µg/mL (≈ 117 µM)
- MIC (E. coli; [25]): 32 µg/mL (≈ 58.5 µM)
- MIC (E. coli; [26]): 32 µg/mL (≈ 58.5 µM)
- MIC (E. coli; [27]): 2 µg/mL (≈ 3.66 µM)
- MIC (E. coli; [28]): 32 µg/mL (≈ 58.5 µM)
- MIC (E. coli; [29]): 0.5 µg/mL (≈ 0.915 µM)

SMILES: NC[C@H]1O[C@H](O[C@H]2[C@H](O)[C@@H](O[C@H]3O[C@H](CO)[C@@H](O)[C@H](N)[C@H]3O)[C@H](N)C[C@@H]2N)[C@H](N)C[C@@H]1O [Tobramycin, tobramycin]
- minimum inhibitory concentration (MIC), Standard (P. aeruginosa 77): ⅛S
- minimum inhibitory concentration (MIC), Sucrose (P. aeruginosa 77): ⅛S
- susceptibility classification, HTFC (P. aeruginosa [1]; [3]): (S)
- susceptibility classification, HTFC (P. aeruginosa [1]; [4]): S
- susceptibility classification, HTFC (P. aeruginosa [1]; [5]): (R)
- susceptibility classification, HTFC (P. aeruginosa [1]; [6]): (S)
- susceptibility classification, HTFC (P. aeruginosa [1]; [7]): (S)
- susceptibility classification, HTFC (P. aeruginosa [1]; [8]): (S)
- susceptibility classification, HTFC (P. aeruginosa [1]; [9]): (S)
- MIC (P. aeruginosa [1]; [10]): 0.25 µg/mL (≈ 0.535 µM)
- MIC (P. aeruginosa [1]; [11]): > 16 µg/mL
- MIC (P. aeruginosa [1]; [12]): 1 µg/mL (≈ 2.14 µM)
- MIC (P. aeruginosa [1]; [13]): 1 µg/mL (≈ 2.14 µM)
- MIC (P. aeruginosa [1]; [14]): 1 µg/mL (≈ 2.14 µM)
- MIC (P. aeruginosa [1]; [15]): 2 µg/mL (≈ 4.28 µM)
- susceptibility classification, BMD (P. aeruginosa [2]; P. aeruginosa Blood Culture B): (S)
- susceptibility classification, BMD (P. aeruginosa [2]; P. aeruginosa Blood Culture C): (S)
- susceptibility classification, BMD (P. aeruginosa [2]; P. aeruginosa PA7): (R)
- susceptibility classification, BMD (P. aeruginosa [2]; P. aeruginosa PA46): (S)
- susceptibility classification, BMD (P. aeruginosa [2]; P. aeruginosa PA49): (S)
- susceptibility classification, BMD (P. aeruginosa [2]; P. aeruginosa PA81): (S)
- susceptibility classification, BMD (P. aeruginosa [2]; P. aeruginosa PAO1): (S)
- MIC (P. aeruginosa [2]; P. aeruginosa Blood Culture B): 2 µg/mL (≈ 4.28 µM)
- MIC (P. aeruginosa [2]; P. aeruginosa Blood Culture C): ≤ 0.125 µg/mL
- MIC (P. aeruginosa [2]; P. aeruginosa PA7): > 64 µg/mL
- MIC (P. aeruginosa [2]; P. aeruginosa PA46): 0.5 µg/mL (≈ 1.07 µM)
- MIC (P. aeruginosa [2]; P. aeruginosa PA49): 0.5 µg/mL (≈ 1.07 µM)
- MIC (P. aeruginosa [2]; P. aeruginosa PA81): 0.5 µg/mL (≈ 1.07 µM)
- MIC (P. aeruginosa [2]; PAO1, P. aeruginosa PAO1): 0.5 µg/mL (≈ 1.07 µM)
- susceptibility classification, BMD (E. coli; [16]): (S)
- susceptibility classification, BMD (E. coli; [17]): (I)
- susceptibility classification, BMD (E. coli; [18]): (S)
- susceptibility classification, BMD (E. coli; [19]): (S)
- susceptibility classification, BMD (E. coli; [20]): (S)
- susceptibility classification, BMD (E. coli; [21]): (R)
- susceptibility classification, BMD (E. coli; [22]): (S)
- MIC (E. coli; [23]): 1 µg/mL (≈ 2.14 µM)
- MIC (E. coli; [24]): 8 µg/mL (≈ 17.1 µM)
- MIC (E. coli; [25]): 0.25 µg/mL (≈ 0.535 µM)
- MIC (E. coli; [26]): 0.5 µg/mL (≈ 1.07 µM)
- MIC (E. coli; [27]): 0.5 µg/mL (≈ 1.07 µM)
- MIC (E. coli; [28]): 32 µg/mL (≈ 68.4 µM)
- MIC (E. coli; [29]): 0.5 µg/mL (≈ 1.07 µM)
- MIC (E. coli; E. coli, strain not named (FIG. 14), read-out: MIC as determined by BMD): 0.25 µg/mL (≈ 0.535 µM)
